The test system of assay [1] is ΔTolC (JW5503). The assay is described as follows: Growth inhibition assay, TolC deletion mutant. The class given is cell-based, Escherichia coli K-12. The settings on record: for IMPOSSIBILITY OF GROWTH: ΔTolC. On the procedure:
(§1) Growing in the liquid medium method was selected as the method to test antibacterial activity of SkQ1. Overnight bacterial cells cultures were diluted in fresh LB media. Bacterial cell culture (5×10^6 cells/ml) were inoculated 200 μl into 96-well plates (Eppendorf, Eppendorf AG, Hamburg, Germany) and SkQ1 or CnTPP were added to reach various final concentrations in the range from 0.5 to 200 μM. Cells were left to grow for 21 hours at 37° C. Optical density at 600 nm was measured using an AnthosZenyth 3100 multimode reader (Anthos Labtec, Austria) during incubation.
(§2) In this experiment we have tested whether To1C-dependent transporter is responsible for resistance of E. coli's cells to SkQ1. In the experiment we used single-gene knockout mutants from Keio collection [Baba T., et al., (2006)]. Construction of Escherichia coli K-12 in-frame, single-gene knockout mutants: the Keio collection. Mol. Syst. Biol. 2, 2006.0008.]. […] We used other knockout mutants of genes encoding proteins of transporters that require To1C for their function. […] In contrast, deletion of genes acrA or acrB dramatically changed the sensitivity of E. coli's cells to SkQ1.
Table 1. Results of growth inhibition assay for deletion mutants of genes encoding To1C-required efflux pumps proteins. Deletion strains JW5503 (devoid of the to1C gene), JW0452 (devoid of the acrA gene), JW0451 (devoid of the acrB gene), JW2454 (devoid of the acrD gene), JW3233 (devoid of the acrE gene), JW3234 (devoid of the acrF gene), JW5338 (devoid of the mdtA gene), JW2060 (devoid of the mdtB gene), JW2061 (devoid of the mdtC gene), JW3481 (devoid of the mdtE gene), and JW3482 (devoid of the mdtF gene) have been described in Baba T., et al., (2006). Construction of Escherichia coli K-12 in-frame, single-gene knockout mutants: the Keio collection. Mol. Syst. Biol. 2, 2006.0008.

Assay [2] has as its system Bacillus subtilis cells. The assay is described as follows: Growth inhibition assay in liquid medium, B. subtilis. It is filed as cell-based. The settings on record: for antimicrobial activity (growth inhibition): gram-positive. The protocol: as §1
(§3) We selected Ecsherishia coli cells as a Gram-negative model organism and Bacillus subtilis cells as a Gram-positive model organism. SkQ1 was selected as a model compound of formula 1 with antioxidant moiety. To select a proper concentration of a compound of formula 1 we performed growth inhibition assays for several SkQ1 concentrations (see FIGS. 8 A and B). It can be concluded from the results of this experiment that 1 μM SkQ1 is the minimal inhibitory concentration (MIC) for B. subtilis cells.

Assay [3] deals with S. cerevisiae W303-1A and PGAL-PDR5, PGAL-SNQ2, PGAL-YOR1 strains. The assay is described as follows: Survival assay (CFU) of yeast treated with C12TPP or SkQ1. The class given is cell-based, Saccharomyces cerevisiae. The note with it: galactose-grown cells, 3 hours treatment. The text has this: FIG. 1A show the chemical structure of dodecyltriphenylphosphonium C12TPP and its plastoquinone derivative (SkQ1) used in this study.
In this example, we used W303-1A S. cerevisiae strains and its derivatives: AD1-8 with deletions of eight MDR genes [W303-1A, yor1::hisG, snq2::hisG, pdr5:shisG, pdr10::hisG, pdr11::hisG, ycf1::hisG, pdr3::hisG, pdr15::hisG][4]□, PGAL-PDR5 [W303-1A HIS3::PGAL-PDR5], PGAL-SNQ2 [W303-1A HIS3::PGAL-SNQ2], and […] [W303-1AHIS3::PGAL-YOR1](this study). Cells were grown in YPD medium (2% glucose, 1% bactopeptone, 1% yeast extract), or in YPGal (2% galactose, 1% bactopepton, 1% yeast extract). For genetic screening and maintenance of strains with conditionally expressed genes synthetic drop-out media YNB-Leu or YNB-His were used according to Sherman 2000 [5]. The growth rates were measured by increase of light scattering (λ=550 nm) in liquid yeast culture.
Exponentially grown cells were taken and treated with indicated amounts of C12TPP or SKQ1 for 3 hours. Then cell suspensions were plated on solid YPD medium and incubated for 48 hours, the number of formed colonies were counted. 100% refers to the number of colony forming units (CFU) in yeast suspension at the beginning of experiment.

The target of assay [4] is T1, MDR pumps (Pdr5p) of yeast cells (Saccharomyces cerevisiae, UniProt P33302).
T1 construct: We measured the efflux of R6G from intact yeast cells using fluorometric method; endogenous in cells; host or cells: S. cerevisiae W303-1A (WT); AD1-8 as MDR-negative control
T1 sequence (P33302 whole entry): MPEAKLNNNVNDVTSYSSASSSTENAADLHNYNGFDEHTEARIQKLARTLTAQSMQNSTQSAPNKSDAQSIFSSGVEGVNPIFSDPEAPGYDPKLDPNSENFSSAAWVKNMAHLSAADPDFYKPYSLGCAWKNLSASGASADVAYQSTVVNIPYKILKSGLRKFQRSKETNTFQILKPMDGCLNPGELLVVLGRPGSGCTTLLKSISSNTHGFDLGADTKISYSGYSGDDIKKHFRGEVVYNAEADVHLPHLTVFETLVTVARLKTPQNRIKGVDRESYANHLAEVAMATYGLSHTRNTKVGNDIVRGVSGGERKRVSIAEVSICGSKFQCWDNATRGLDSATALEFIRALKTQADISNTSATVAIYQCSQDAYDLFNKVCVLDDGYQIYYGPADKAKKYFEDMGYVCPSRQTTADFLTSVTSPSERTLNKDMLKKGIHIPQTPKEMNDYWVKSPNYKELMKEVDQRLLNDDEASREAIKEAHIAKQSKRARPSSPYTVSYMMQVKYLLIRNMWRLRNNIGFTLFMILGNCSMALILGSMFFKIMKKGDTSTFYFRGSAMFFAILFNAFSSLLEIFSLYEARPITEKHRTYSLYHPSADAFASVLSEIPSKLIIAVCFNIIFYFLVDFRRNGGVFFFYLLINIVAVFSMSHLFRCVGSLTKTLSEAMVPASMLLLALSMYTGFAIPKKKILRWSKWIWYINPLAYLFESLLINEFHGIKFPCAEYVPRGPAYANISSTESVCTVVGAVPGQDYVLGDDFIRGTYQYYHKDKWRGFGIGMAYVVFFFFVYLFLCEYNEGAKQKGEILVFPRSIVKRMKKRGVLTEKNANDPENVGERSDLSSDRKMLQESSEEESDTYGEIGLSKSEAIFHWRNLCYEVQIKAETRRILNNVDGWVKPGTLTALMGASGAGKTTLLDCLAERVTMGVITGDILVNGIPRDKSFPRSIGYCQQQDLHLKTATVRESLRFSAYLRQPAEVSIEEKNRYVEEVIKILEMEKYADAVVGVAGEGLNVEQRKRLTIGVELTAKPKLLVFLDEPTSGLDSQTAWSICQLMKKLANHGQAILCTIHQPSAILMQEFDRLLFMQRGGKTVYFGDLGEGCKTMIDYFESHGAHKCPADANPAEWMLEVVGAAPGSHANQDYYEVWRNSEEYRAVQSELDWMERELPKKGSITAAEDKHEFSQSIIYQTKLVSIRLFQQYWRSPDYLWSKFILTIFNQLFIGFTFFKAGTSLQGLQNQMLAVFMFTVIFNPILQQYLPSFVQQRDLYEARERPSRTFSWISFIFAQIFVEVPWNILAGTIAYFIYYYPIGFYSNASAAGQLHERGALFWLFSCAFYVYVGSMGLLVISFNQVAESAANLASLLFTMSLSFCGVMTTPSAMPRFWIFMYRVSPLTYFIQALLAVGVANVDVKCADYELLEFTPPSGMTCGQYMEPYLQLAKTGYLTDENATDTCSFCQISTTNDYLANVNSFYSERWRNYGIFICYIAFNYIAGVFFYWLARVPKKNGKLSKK
It is filed as cell-based. The settings on record: 2 μM compound. The protocol:
The ordinate corresponds to the ratio of slopes in a and b.
To measure the relative rate of rhodamine 6G efflux we used fluorometric assay implemented by Kolaczkowsky et al., with few modifications. Cells were grown overnight in 40 ml in liquid YPD to density of 0.5-1*10^7 cells/ml, washed twice with cold sterile water and resuspended in 10 ml phosphate buffer saline supplemented with 5 mM 2-deoxyglucose and 2.5 mM 2,4-dinitrophenol. Cell suspension was incubated for 45 minutes on a rotatory shaker, then the inhibitors were removed by two cycles of centrifugation/resuspension in cold water. The energy deprived cells were resuspended in 10 ml of PBS and then stained with R6G (10 μM) for 30 minutes. Then cell suspension was pelleted, resuspended in equal volume of PBS and stored on ice for 1-5 hours. The measurements of efflux were performed with FluoroMax-3 fluorometer system with exication wavelength set to 480 nm, and emission wavelength set to 560 nm. The R6G efflux was initiated by addition of 0.1% glucose, cell density in fluorometric cuvette was 10^6 cells/ml.

The test system of assay [5] is E. coli. The assay is described as follows: Growth inhibition assay in liquid medium, E. coli. It is filed as cell-based, Escherichia coli. On the procedure: as §1, §3
For assay [6], the system named is ΔAcrA (JW0452). The assay is described as follows: Growth inhibition assay, AcrA deletion mutant. The class given is cell-based, Escherichia coli K-12. The protocol:
as §1, §2
(§4) Table 1. Results of growth inhibition assay for deletion mutants of genes encoding To1C-required efflux pumps proteins. […]

Assay [7] has as its target T2, AcrAB-To1C transporter (Escherichia coli, UniProt P31224).
T2 construct: endogenous in cells
The assay is described as follows: Ethidium bromide accumulation experiment. The class given is cell-based. The note with it: SkQ1 50 μM; ethidium bromide 20 μg/ml. On the procedure: For emulation of cell membrane leakage, bacterial cells were resuspended in deionized water. Ethidium bromide was added (20 μg/ml) and the change of fluorescence intensity was recorded on Fluorat-02-Panorama. For detecting of the accumulation of ethidium bromide, SkQ1 was added to a concentration of 50 μM.
To confirm whether AcrAB-To1C is the appropriate transporter, we used a test based on the measurement of ethidium bromide leakage through intact bacterial membranes. […] Bacterial cells were prepared and resuspended in PBS. For emulation of cell membrane leakage bacterial cells were resuspended in deionized water (Milli-Q water purification system, EMD Millipore, Billerica, Mass.). Ethidium bromide was added (20 μg/ml) and the change of fluorescence intensity was recorded on Fluorat-02-Panorama (Lumex Instruments, Russia) spectrofluorometer. For increasing the accumulation of ethidium bromide, SkQ1 was added to reach a concentration of 50 μM. […] We observed ethidium bromide accumulation when ethidium bromide concentration was 40-times less than MIC for E. coli cells that only can be the result of collateral action of SkQ1 and ethidium bromide as substrates for AcrAB-To1C transporter.

For assay [8], the system named is ΔAcrB (JW0451). Kind of assay: Growth inhibition assay, AcrB deletion mutant. It is filed as cell-based, Escherichia coli K-12. On the procedure: as §1, §2, §4

The record followed here is patent US20170128467A1, “ANTIMICROBIAL PHARMACEUTICAL COMPOSITIONS WITH MULTIPLE DRUG RESISTANCE INHIBITING PROPERTIES” (priority 2014, published 2017).

T2 sequence (P0AE06 25-397): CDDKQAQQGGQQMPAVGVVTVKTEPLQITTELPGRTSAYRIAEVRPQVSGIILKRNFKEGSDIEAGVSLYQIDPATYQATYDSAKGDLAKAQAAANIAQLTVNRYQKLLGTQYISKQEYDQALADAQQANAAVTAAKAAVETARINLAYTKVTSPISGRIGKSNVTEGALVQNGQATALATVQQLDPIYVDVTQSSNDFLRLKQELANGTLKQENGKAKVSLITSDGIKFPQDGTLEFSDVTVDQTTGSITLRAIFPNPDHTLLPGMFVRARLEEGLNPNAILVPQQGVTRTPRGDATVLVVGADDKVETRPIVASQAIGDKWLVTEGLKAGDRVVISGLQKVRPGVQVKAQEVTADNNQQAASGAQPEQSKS
T2 sequence (P02930 23-493, further chain): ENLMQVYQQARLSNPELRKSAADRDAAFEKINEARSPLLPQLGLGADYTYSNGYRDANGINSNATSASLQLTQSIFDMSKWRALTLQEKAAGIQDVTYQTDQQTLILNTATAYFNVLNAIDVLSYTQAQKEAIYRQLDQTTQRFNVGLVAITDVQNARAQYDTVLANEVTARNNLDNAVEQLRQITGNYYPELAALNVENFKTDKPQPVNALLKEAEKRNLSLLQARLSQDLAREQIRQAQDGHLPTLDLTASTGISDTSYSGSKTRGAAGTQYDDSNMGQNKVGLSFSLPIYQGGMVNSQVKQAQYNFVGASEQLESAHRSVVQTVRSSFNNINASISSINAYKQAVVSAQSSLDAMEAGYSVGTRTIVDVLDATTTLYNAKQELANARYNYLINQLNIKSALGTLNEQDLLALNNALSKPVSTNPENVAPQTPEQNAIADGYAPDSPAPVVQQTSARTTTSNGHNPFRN
T2 sequence (P31224 whole entry): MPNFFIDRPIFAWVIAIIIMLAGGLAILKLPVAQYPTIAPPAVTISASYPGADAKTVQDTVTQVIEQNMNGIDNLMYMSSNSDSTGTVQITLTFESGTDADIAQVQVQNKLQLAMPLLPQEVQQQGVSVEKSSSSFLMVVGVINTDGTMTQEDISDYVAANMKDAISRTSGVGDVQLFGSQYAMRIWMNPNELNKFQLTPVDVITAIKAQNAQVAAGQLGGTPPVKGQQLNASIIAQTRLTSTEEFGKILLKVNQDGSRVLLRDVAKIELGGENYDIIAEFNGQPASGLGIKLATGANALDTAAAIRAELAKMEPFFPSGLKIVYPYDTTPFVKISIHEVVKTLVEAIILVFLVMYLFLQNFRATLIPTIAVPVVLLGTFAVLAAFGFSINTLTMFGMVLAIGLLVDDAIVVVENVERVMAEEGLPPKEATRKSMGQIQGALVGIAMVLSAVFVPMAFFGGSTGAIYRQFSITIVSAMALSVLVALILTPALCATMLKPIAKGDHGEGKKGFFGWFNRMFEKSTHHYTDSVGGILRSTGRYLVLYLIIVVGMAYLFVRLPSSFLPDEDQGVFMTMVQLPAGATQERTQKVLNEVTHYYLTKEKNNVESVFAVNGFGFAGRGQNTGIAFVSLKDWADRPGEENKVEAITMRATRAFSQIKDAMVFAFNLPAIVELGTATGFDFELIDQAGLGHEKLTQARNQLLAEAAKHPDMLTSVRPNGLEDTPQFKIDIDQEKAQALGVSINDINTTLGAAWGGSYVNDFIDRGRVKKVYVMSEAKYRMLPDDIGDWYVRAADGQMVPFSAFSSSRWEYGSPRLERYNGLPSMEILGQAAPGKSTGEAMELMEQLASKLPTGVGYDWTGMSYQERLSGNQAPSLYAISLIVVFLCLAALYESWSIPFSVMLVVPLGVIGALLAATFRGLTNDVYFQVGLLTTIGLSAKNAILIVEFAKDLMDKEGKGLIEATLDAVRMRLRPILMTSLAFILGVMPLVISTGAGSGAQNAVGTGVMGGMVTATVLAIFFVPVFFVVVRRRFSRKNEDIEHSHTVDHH

Take `CCCCCCCC[P+](c1ccccc1)(c1ccccc1)c1ccccc1` [C8TPP, octyltriphenylphosphonium]: the “antimicrobial activity (growth inhibition)” value in assay [1] (To1C-deletion mutant) and in assay [2] was “have antimicrobial activity” each time.

Take `CC1=C(C)C(=O)C(CCCCCCCCCC[P+](c2ccccc2)(c2ccccc2)c2ccccc2)=CC1=O` [SkQ1, plastoquinonildecyltriphenylphosphonium]: the MBC in assay [1] (Escherichia coli, read-out: minimal bactericidal concentration) was roughly 2 µM. For the same compound, the “IMPOSSIBILITY OF GROWTH” value in assay [1] (5 μM), in assay [1] (30 μM), in assay [6] (5 μM), in assay [6] (30 μM), in assay [8] (5 μM) and in assay [8] (30 μM) was “YES” throughout. The “resistance of cells (survival) under overexpression of MDR pump genes” value in assay [3] is “did not observe any effect of MDR overexpression”. In addition, the MIC in assay [2] (Bacillus subtilis, LB media, 37° C., read-out: minimal inhibitory concentration (MIC)) came out at 1 µM; in assay [5] (Escherichia coli, LB media, 37° C., read-out: minimal inhibitory concentration (MIC)), 50 µM. Besides, the “antimicrobial activity (growth inhibition)” value is “strong antimicrobial activity” in assay [2] and “mild antimicrobial activity” in assay [5] (gram-negative). The “inhibition of glucose-induced R6G efflux from yeast cells” value in assay [4] was “much more efficient”. Further, the “inhibition of glucose-induced R6G efflux from yeast cells pretreated with NaN3” value in assay [4] (cells pretreated with 10 mM NaN3) is listed as “inhibits glucose-induced R6G efflux”. Also, the “growth inhibition at 1 μM” value in assay [5] (1 μM SkQ1) is “did not inhibit significantly growth”. The “ethidium bromide leakage through bacterial membranes (accumulation)” value in assay [7] is reported as “comparable to ethidium bromide leakage during osmotic shock”. In assay [7], the “substrate of AcrAB-To1C transporter” value is “is a substrate for AcrAB-To1C transporter”.

With `CC1=C(C)C(=O)C(CCCCCCCCCC[P+](c2ccccc2)(c2ccccc2)c2ccccc2)=C(C)C1=O` [SkQ3], in assay [2], the “antimicrobial activity (growth inhibition)” value is on record as “have antimicrobial activity”.

Regarding `CC1=C(C)C(=O)C(CCCCC[P+](c2ccccc2)(c2ccccc2)c2ccccc2)=CC1=O` [SkQ5], in assay [2], the “antimicrobial activity (growth inhibition)” value is reported as “have antimicrobial activity”.

For the compound `CC1=CC(=O)C(CCCCCCCCCC[P+](c2ccccc2)(c2ccccc2)c2ccccc2)=CC1=O` [SkQT-para], in assay [2], the “antimicrobial activity (growth inhibition)” value is on record as “have antimicrobial activity”.
